What all share (type): cell-based
Test [1] deals with human colon carcinoma cell line HCT116. Nature of the test: Inhibition of cell proliferation (GI50), HCT116. Conditions: Homo sapiens; HCT 116 cells, 48 h, CellTiter-Glo. The protocol: (§1) Human breast cancer cell lines T-47D, human hepatocellular carcinoma cell line SNU398, human colon carcinoma cell line HCT116, human lung cancer cell line H1299, human leukemia cell line K562, human lymphoma cell line Raji, human B cell lymphoblastoid cell line Ramos, and human Burkitt's lymphoma cell line Namalwa were grown and harvested as in Example 100. An aliquot of […] of cells (4.4×10^4 cells/mL) was added to a well of a 96-well microtiter plate containing 5 μL of a 10% DMSO in RPMI-1640 media solution containing 10 nM to 100 μM of 3-(2-chlorophenyl)-6-(3,4-methylenedioxyphenyl)-7H-[1,2,4]triazolo[3,4-b][1,3,4]thiadiazine (1 nM to 10 μM final). An aliquot of 45 μL of cells was added to a well of a 96-well microtiter plate containing 5 μL of a 10% DMSO in RPMI-1640 media solution without compound as the control sample for maximal cell proliferation (LMax). The samples were mixed by agitation and then incubated at 37° C. for 48 h in a 5% CO2-95% humidity incubator. After incubation, the samples were removed from the incubator and 25 μL of CellTiter-Glo™ reagent (Promega) was added. The samples were mixed by agitation and incubated at room temperature for 10-15 min. Plates were then read using a luminescent plate reader (Model SPECTRAfluor Plus, Tecan) to give Ltest values.
(§2) The samples were mixed by agitation and then incubated at 37° C. for 0.5 h in a 5% CO2-95% humidity incubator. After incubation, the samples were removed from the incubator and 25 μL of CellTiter-Glo™ reagent (Promega) was added. The samples were mixed by agitation and incubated at […] 10-15 min at room temperature in a 5% CO2-95% humidity incubator. Fluorescence was read as above, (LStart) defining luminescence for initial cell number used as baseline in GI50 determinations.
(§3) Calculation: GI50 (dose for 50% inhibition of cell proliferation) is the concentration where [(Ltest−LStart)/(LMax−LStart)]=0.5.

Test [2] has as its system human Burkitt's lymphoma cell line Namalwa. Briefly: Inhibition of cell proliferation (GI50), Namalwa. Conditions: Homo sapiens, Burkitts lymphoma cell; Namalwa cells, 48 h, CellTiter-Glo. The protocol:
as §1, §2, §3

Test [3] deals with human hepatocellular carcinoma cell line SNU398. Nature of the test: Caspase cascade activation (EC50), SNU398. Conditions: Homo sapiens, SNU-398; SNU398 cells; caspase cascade activation; read-out: caspase potency (EC50) SNU398. Put shortly: (§4)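 48 h compound exposure (0.016–10 μM final) at 37 °C, 5% CO2; then DEVD-R110 substrate in lysolecithin/DTT/PIPES pH 7.2 buffer, 3 h RT. Fluorescence ex485/em530; net RFU = T=3 h minus control T=0; ratio to control; sigmoidal fit → EC50 (nM).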

Test [4] has as its system human leukemia cell line K562. Nature of the test: Inhibition of cell proliferation (GI50), K562. Conditions: Homo sapiens; K562 cells, 48 h, CellTiter-Glo. On the procedure: as §1, §2, §3
For test [5], the system named is human breast cancer cell line T-47D. Briefly: Caspase cascade activation (EC50), T-47D. To be noted: Homo sapiens; T47D cells; caspase cascade activation; read-out: caspase potency (EC50) T47D. The method in brief:
as §4

Test [6] concerns human B cell lymphoblastoid cell line Ramos. Briefly: Inhibition of cell proliferation (GI50), Ramos. To be noted: Homo sapiens; Ramos cells, 48 h, CellTiter-Glo. On the procedure: as §1, §2, §3
For test [7], the system named is human lymphoma cell line Raji. Briefly: Caspase cascade activation (EC50), Raji. To be noted: Homo sapiens, RAJI cells, read-out: caspase potency (EC50) RAJI. The method in brief:
as §4

Test [8] relates to human Burkitt's lymphoma cell line Namalwa. Briefly: Caspase cascade activation (EC50), Namalwa. To be noted: Homo sapiens, Burkitts lymphoma cell; Namalwa cells; caspase cascade activation; read-out: caspase potency (EC50) Namalwa. The method in brief:
as §4

Test [9] relates to human B cell lymphoblastoid cell line Ramos. Briefly: Caspase cascade activation (EC50), Ramos. Conditions: Homo sapiens, RAMOS cells, read-out: caspase potency (EC50) RAMOS. Put shortly:
as §4

For test [10], the system named is human colon carcinoma cell line HCT116. Nature of the test: Caspase cascade activation (EC50), HCT116. To be noted: Homo sapiens, HCT-116; HCT116 cells; caspase cascade activation; read-out: caspase potency (EC50) HCT116. The method in brief: as §4
In test [11] the test system is human lymphoma cell line Raji. Briefly: Inhibition of cell proliferation (GI50), Raji. To be noted: Homo sapiens; Raji cells, 48 h, CellTiter-Glo. On the procedure: as §1, §2, §3

SMILES strings stand for the structures. Structures can show the parent of a compound that is named as a salt.

With `COc1ccccc1-c1nnc2n1N=C(c1ccc(N3CCCC3)cc1)CS2` [Example 24, 3-(2-Methoxyphenyl)-6-(4-(pyrrolidin-1-yl)phenyl)-7H-[1,2,4]triazolo[3,4-b][1,3,4]thiadiazine], the GI50 was 41 nM in [1]; 64 nM in test [2]; 17 nM in test [4]; 16 nM in test [6]; 15 nM in [11]. The half-maximal effective concentration (EC50) stood at 41 nM in test [3]; 91 nM in test [5]; 107 nM in test [7]; 35 nM in test [8]; 62 nM in [9]; 62 nM in [10].

For `COc1ccc(C2=Nn3c(nnc3-c3ccccc3Br)SC2)cc1` [Example D3], the GI50 stood at 100 nM in test [1]; 33 nM in test [2]; 44 nM in [4]; 49 nM in test [6]; 85 nM in [11]. Further, the EC50 in [3] turned out to be 61 nM; in test [5] it was 332 nM; in test [7] it was 115 nM; in test [8] it was 54 nM; in test [9] it was 76 nM; in test [10], 143 nM.

Regarding `COc1ccc(C2=Nn3c(nnc3-c3cccc(Br)c3)SC2)cc1` [Example I2, 3-(3-Bromophenyl)-6-(4-methoxyphenyl)-7H-[1,2,4]triazolo[3,4-b][1,3,4]thiadiazine], the concentration for 50% growth inhibition (GI50) in test [1] is 376 nM; in test [2] it was 400 nM; in test [4] it was 96 nM; in test [6], 119 nM; in test [11], 176 nM. In addition, the EC50 amounted to 329 nM in test [3]; 905 nM in [5]; 523 nM in test [7]; 629 nM in test [8]; 379 nM in test [9]; 612 nM in test [10].

On to `COc1cc(OC)cc(-c2nnc3n2N=C(c2ccc(C)cc2)CS3)c1` [Example 12, 3-(3,5-Dimethoxyphenyl)-6-(4-methylphenyl)-7H-[1,2,4]triazolo[3,4-b][1,3,4]thiadiazine hydrochloride], for which the GI50 in [1] was 50 nM; in test [2], 6 nM; in test [4], 7 nM; in [6], 5 nM; in [11] it was 15 nM. The EC50 in test [3] was found to be 61 nM; in test [5], 760 nM; in test [7], 55 nM; in [8], 20 nM; in test [9] it was 20 nM; in test [10] it was 71 nM.

As to `CCN(CC)c1ccc(C2=Nn3c(nnc3-c3ccc(OC)cc3OC)SC2)cc1` [Example 27, 6-(4-Diethylaminophenyl)-3-(2,4-dimethoxyphenyl)-7H-[1,2,4]triazolo[3,4-b][1,3,4]thiadiazine], the GI50 was found to be 23 nM in [1]; 2 nM in test [2]; 10 nM in [4]; 1 nM in test [6]; 3 nM in [11]. Moreover, the EC50 came out at 47 nM in test [3]; 44 nM in [5]; 46 nM in test [7]; 31 nM in test [8]; 55 nM in test [9]; 55 nM in [10].

With `COc1ccc(C2=Nn3c(nnc3-c3ccccc3F)SC2)cc1` [Example L2, 3-(2-Fluorophenyl)-6-(4-methoxyphenyl)-7H-[1,2,4]triazolo[3,4-b][1,3,4]thiadiazine], the GI50 in test [1] is 142 nM; in test [2], 68 nM; in test [4], 34 nM; in test [6] it was 20 nM; in test [11], 247 nM. Also, the EC50 in test [3] was found to be 55 nM; in test [5], 553 nM; in test [7], 85 nM; in [8] it was 76 nM; in test [9], 60 nM; in test [10] it was 122 nM.

The record behind these values is patent US20080045514A1 (Cytovia, Inc., priority 2006, published 2008).
